From patent US9649314B2, “Pyrimido[4,5-b]quinoline-4,5(3H,10H)-diones” (NOVARTIS AG, priority 2012, dated 2017) come the findings set out here.

The test system of the assay is CFTR-Y122X. Briefly: CFTR-Y122X assay (dual reporter isogenic Hek293 cell lines, Renilla luminescence readthrough). The assay is classed as cell-based. Conditions: Homo sapiens, HEK293. From the text:
Activity of compounds of the present invention was examined in recombinant, dual reporter isogenic Hek293 cell lines (“CFTR-Y122X assay”). The engineered reporter constructs contained the 18 bp sequence stretch corresponding to a common Y122X PTC mutation in CFTR class I mutant patients (see Sermet-Gaudelus, BMC Medicine, 2007, 5(5)). Instead of a tyrosine (Y) in position 122 of the CFTR protein a TGA stop codon interrupts the open reading frame (Y122X) of the corresponding mRNA. This TGA stop codon triplet (followed by the pyrimidine base cytosine) is permissive to aminoglycoside mediated translational readthrough which served as positive control for high throughput screening. A corresponding TAA stop codon variant and a wildtype non mutated construct was used for confirmation and counter screening. The CFTR sequence was sandwiched between an eGFP reporter, and a triple myc tag sequence fused to a full length Renilla reporter. All sequences, including an intron containing one positioned pre-eGFP (b-globin intron) were cloned in frame. The corresponding expression constructs were stably expressed in the isogenic HEK-R4 cell host (Invitrogen Incorp.) and selected by blasticidin resistance. The isogenic integration of the construct minimizes gene dose effects and improves assay reproducibility. Stably integrated single cell derived clones were selected and characterized for aminoglycoside mediated readthrough. […] Readthrough of Y122X accumulates an intracellular localized fusion protein approximately 65.5 kDa in size as controlled by western blot analysis and immunofluorescence using an anti-renilla antibody. The eGFP reporter pre-PTC mutation serves as visual control for genetic stability of the screening clones and minimizes protein degradation of small fusion protein amounts. In the assay, compound concentration was 10 μM. In miniaturized 1536 well format 2000 cells were dispensed in 4 μl/well and incubated for 24 h at 37° C., 5% CO2. 40 nl compounds were placed on the cells with control wells containing 1 ul Paramomycin and 14.4 mM final concentration. Compounds were incubated for 24 h. Renilla Glo substrate (2.5 ul) was added and plates were centrifuged and processed for luminescence measurement using various readers. Activity calculation was done using the equation: A1 (%)=100*(S−NC)/(AC−NC) where AC, NC and S correspond to active controls (injection of Stimulation buffer=100% stimulation), neutral controls (buffer injection which Iloprost EC10) and screening samples (S). NC corresponds to 0% activity whereas AC is 100% activity (14 mM paromomycin). False positive artefacts were removed in confirmation and validation screening using the same assay format followed by counterscreening using the respective wildtype construct (w/o PTC mutation) cell model. Compounds were tested up to 100 μM compound concentration.

The mark [1] stands for this setting: nonsense mutation suppression, 100% = 14 mM paromomycin, 24 h incubation, tested up to 100 μM, read-out: Amax [%].
The mark [2] stands for this setting: nonsense mutation suppression, 24 h incubation.
[3] abbreviates: at the above dose ranges (up to 100 μM), read-out: suppression, % of paromomycin reference activity.

Like-named read-outs stand apart in the source and are kept apart here. A value given as a limit tells only on which side of the number the result lay.

On to `COCCCCc1nc2c(c(=O)c3ccccc3n2C)c(=O)n1-c1ccccc1` [Example 1.14, 2-(4-methoxybutyl)-10-methyl-3-phenylpyrimido[4,5-b]quinoline-4,5(3H,10H)-dione], for which the Emax under setting [1] turned out to be 18%.
`Cn1c2ccccc2c(=O)c2c(=O)n(-c3ccccc3)c(C3CCCCC3)nc21` [Example 1.32, 2-cyclohexyl-10-methyl-3-phenylpyrimido[4,5-b]quinoline-4,5(3H,10H)-dione]: the Emax under setting [1] came out at 38%.
As for `CC(C)c1ccccc1-n1c(C(C)C)nc2c(c(=O)c3ccccc3n2C)c1=O` [Example 1.38, 2-isopropyl-3-(2-isopropylphenyl)-10-methylpyrimido[4,5-b]quinoline-4,5(3H,10H)-dione], the Emax under setting [1] worked out at 15%.
In the case of `CC(C)c1nc2c(c(=O)c3ccccc3n2C)c(=O)n1C1CCCCC1` [Example 2.29, 3-cyclohexyl-2-isopropyl-10-methylpyrimido[4,5-b]quinoline-4,5(3H,10H)-dione], the Emax under setting [1] stood at 73%. For the same compound, the AC50 under setting [2] stood at 14.3 µM.
For `CCCCCc1nc2c(c(=O)c3ccccc3n2C)c(=O)n1C1CCCC1` [Example 2.18, 3-cyclopentyl-10-methyl-2-pentylpyrimido[4,5-b]quinoline-4,5(3H,10H)-dione] the same measures were 222% and 9.9 µM.
`Cn1c2ccccc2c(=O)c2c(=O)n(-c3ccccc3)c(C3CC3)nc21` [Example 1.11, 2-cyclopropyl-10-methyl-3-phenylpyrimido[4,5-b]quinoline-4,5(3H,10H)-dione]: the Emax under setting [1] turned out to be 188%. The activity under setting [2] was half-maximal at 9.1 µM (AC50).
Take `Cc1cc(C)cc(-n2c(C3CCCCC3)nc3c(c(=O)c4ccccc4n3C)c2=O)c1` [2-cyclohexyl-3-(3,5-dimethylphenyl)-10-methylpyrimido[4,5-b]quinoline-4,5(3H,10H)-dione]: the Emax under setting [3] is < 5%.
With `CCCCCc1nc2c(c(=O)c3ccccc3n2C)c(=O)n1C1CCCCCC1` [Example 2.25, 3-cycloheptyl-10-methyl-2-pentylpyrimido[4,5-b]quinoline-4,5(3H,10H)-dione], the Emax under setting [1] came to 149%. For the same compound, under setting [2], the AC50 amounted to 6.4 µM.
Turning to `COc1cccc(-n2c(C(C)C)nc3c(c(=O)c4ccccc4n3C)c2=O)c1` [Example 1.22, 2-isopropyl-3-(3-methoxyphenyl)-10-methylpyrimido[4,5-b]quinoline-4,5(3H,10H)-dione], the Emax under setting [1] was 23%. This compound yielded an AC50 under setting [2] of 1.9 µM.
In the case of `CCn1c2ccccc2c(=O)c2c(=O)n(C3CCCC3)c(C(C)C)nc21` [Example 2.3, 3-cyclopentyl-10-ethyl-2-isopropylpyrimido[4,5-b]quinoline-4,5(3H,10H)-dione], the Emax under setting [1] stood at 101%. The concentration at half-maximal activity (AC50) under setting [2] turned out to be 21.6 µM.
For `CN(C)c1nc2c(c(=O)c3ccccc3n2C)c(=O)n1-c1ccccc1` [Example 3.3, 2-(dimethylamino)-10-methyl-3-phenylpyrimido[4,5-b]quinoline-4,5(3H,10H)-dione] the same measures were 18% and 3.5 µM.
Turning to `Cn1c2ccccc2c(=O)c2c(=O)n(C3CCCCC3)c(-c3ccc(C(C)(C)C)cc3)nc21` [2-(4-(tert-butyl)phenyl)-3-cyclohexyl-10-methylpyrimido[4,5-b]quinoline-4,5(3H,10H)-dione], under setting [3], the Emax was < 5%.
With `Cn1c2ccccc2c(=O)c2c(=O)n(-c3cccc(Cl)c3)c(C3CCCCC3)nc21` [3-(3-chlorophenyl)-2-cyclohexyl-10-methylpyrimido[4,5-b]quinoline-4,5(3H,10H)-dione], the Emax under setting [3] was < 5%.
The same measure, in the same setting: in the case of `Cn1c2ccccc2c(=O)c2c(=O)n(C3CCCCCC3)c(-c3ccc(F)cc3)nc21` [3-cycloheptyl-2-(4-fluorophenyl)-10-methylpyrimido[4,5-b]quinoline-4,5(3H,10H)-dione] it was < 5%.
As for `CCCCCc1nc2c(c(=O)c3ccccc3n2C)c(=O)n1-c1cc(C)cc(C)c1` [Example 1.34, 3-(3,5-dimethylphenyl)-10-methyl-2-pentylpyrimido[4,5-b]quinoline-4,5(3H,10H)-dione], the Emax under setting [1] amounted to 16%. Also, the AC50 under setting [2] worked out at 3.2 µM.
Take `CC(C)c1nc2c(c(=O)c3ccccc3n2C)c(=O)n1-c1ccccc1C(F)(F)F` [Example 1.20, 2-isopropyl-10-methyl-3-(2-(trifluoromethyl)phenyl)pyrimido[4,5-b]quinoline-4,5(3H,10H)-dione]: under setting [1], the Emax was determined as 65%. The compound further had a concentration at half-maximal activity (AC50) under setting [2] of 13.8 µM.
Turning to `C=CCn1c2ccccc2c(=O)c2c(=O)n(-c3ccccc3)c(C(C)C)nc21` [Example 1.2, 10-allyl-2-isopropyl-3-phenylpyrimido[4,5-b]quinoline-4,5(3H,10H)-dione], the Emax under setting [1] was found to be 63%.
As for `Cn1c2ccccc2c(=O)c2c(=O)n(C3CCCCCC3)c(-c3ccc(Cl)cc3Cl)nc21` [3-cycloheptyl-2-(2,4-dichlorophenyl)-10-methylpyrimido[4,5-b]quinoline-4,5(3H,10H)-dione], the Emax under setting [3] was < 5%.
Regarding `COCCn1c2ccccc2c(=O)c2c(=O)n(-c3ccccc3)c(C(C)C)nc21` [Example 1.43, 2-isopropyl-10-(2-methoxyethyl)-3-phenylpyrimido[4,5-b]quinoline-4,5(3H,10H)-dione], the Emax under setting [1] is 9%.
On to `C=CCn1c2ccccc2c(=O)c2c(=O)n(C3CCCC3)c(C(C)C)nc21` [Example 2.1, 10-allyl-3-cyclopentyl-2-isopropylpyrimido[4,5-b]quinoline-4,5(3H,10H)-dione], for which the Emax under setting [1] is 102%. The concentration at half-maximal activity (AC50) under setting [2] was found to be 21 µM.
With `O=c1c2ccccc2n(CCO)c2nc(C3CCC3)n(-c3ccccc3)c(=O)c12` [Example 1.39, 2-cyclobutyl-10-(2-hydroxyethyl)-3-phenylpyrimido[4,5-b]quinoline-4,5(3H,10H)-dione], the Emax under setting [1] stood at 250%. This compound returned a half-maximal activity concentration (AC50) under setting [2] of 3.2 µM.
In the same order, the values of `Cc1ccccc1-n1c(C(C)C)nc2c(c(=O)c3ccccc3n2C)c1=O` [Example 1.18, 2-isopropyl-10-methyl-3-(o-tolyl)pyrimido[4,5-b]quinoline-4,5(3H,10H)-dione] are 248% and 6.9 µM.
On to `Cn1c2ccccc2c(=O)c2c(=O)n(C3CCCC3)c(-c3ccccc3F)nc21` [Example 2.32, 3-cyclopentyl-2-(2-fluorophenyl)-10-methylpyrimido[4,5-b]quinoline-4,5(3H,10H)-dione], for which, for the setting “measured at 100 μM compound concentration (footnote d), read-out: Amax [%]: % nonsense mutation suppression relative to paromomycin reference activity”, the Emax at 100 µM was determined as 43%.
As to `Cc1cc(C)cc(-n2c(C(C)C)nc3c(c(=O)c4ccccc4n3C)c2=O)c1` [Example 1.35, 3-(3,5-dimethylphenyl)-2-isopropyl-10-methylpyrimido[4,5-b]quinoline-4,5(3H,10H)-dione], the Emax under setting [1] came to 13%. The compound further displayed an AC50 under setting [2] of 1.5 µM.
Consider `C=CCn1c2ccccc2c(=O)c2c(=O)n(-c3ccccc3)c(C3CCC3)nc21` [Example 1.4, 10-allyl-2-cyclobutyl-3-phenylpyrimido[4,5-b]quinoline-4,5(3H,10H)-dione], for which the Emax under setting [1] stood at 279%. For the same compound, under setting [2], the concentration at half-maximal activity (AC50) turned out to be 4 µM.
Take `CC(C)Cn1c2ccccc2c(=O)c2c(=O)n(-c3ccccc3)c(C(C)C)nc21` [10-isobutyl-2-isopropyl-3-phenylpyrimido[4,5-b]quinoline-4,5(3H,10H)-dione]: the Emax under setting [3] is < 5%.
With `Cn1c2ccccc2c(=O)c2c(=O)n(C3CCCC3)c(C3CCCN(C4CCCC4)C3)nc21` (centres unmarked) [3-cyclopentyl-2-(1-cyclopentylpiperidin-3-yl)-10-methylpyrimido[4,5-b]quinoline-4,5(3H,10H)-dione], the Emax under setting [3] was < 5%.
With `CC(C)c1nc2[nH]c3ccccc3c(=O)c2c(=O)n1-c1ccccc1` [Example 1.3, 2-isopropyl-3-phenylpyrimido[4,5-b]quinoline-4,5(3H,10H)-dione], under setting [1], the Emax is 279%. The compound also had a concentration at half-maximal activity (AC50) under setting [2] of 6.1 µM.
In the same order, the values of `Cn1c2ccccc2c(=O)c2c(=O)n(C3CCCC3)c(-c3ccccc3Cl)nc21` [Example 2.35, 2-(2-chlorophenyl)-3-cyclopentyl-10-methylpyrimido[4,5-b]quinoline-4,5(3H,10H)-dione] are 31% and 9.4 µM.
In the same order, the values of `Cn1c2ccccc2c(=O)c2c(=O)n(C3CCCCC3)c(-c3ccccc3F)nc21` [Example 2.41, 3-cyclohexyl-2-(2-fluorophenyl)-10-methylpyrimido[4,5-b]quinoline-4,5(3H,10H)-dione] are 18% and 4.9 µM.

For orientation: AC50 means the concentration at which the activity in the assay is half-maximal. A higher AC50 goes with activity only at high concentration.
